Measured values published in ChEMBL document CHEMBL5113372, “Paradigm shift of "classical" HDAC inhibitors to "hybrid" HDAC inhibitors in therapeutic interventions” (Eur J Med Chem, 2021).
Each block holds one compound with its values, some of them ahead of it.

Key:
[1] = target: T1, Protein deacetylase HDAC6 (Homo sapiens, UniProt Q9UBN7); experiment: Inhibition of HDAC6 (unknown origin)
T1 sequence (Q9UBN7 whole entry): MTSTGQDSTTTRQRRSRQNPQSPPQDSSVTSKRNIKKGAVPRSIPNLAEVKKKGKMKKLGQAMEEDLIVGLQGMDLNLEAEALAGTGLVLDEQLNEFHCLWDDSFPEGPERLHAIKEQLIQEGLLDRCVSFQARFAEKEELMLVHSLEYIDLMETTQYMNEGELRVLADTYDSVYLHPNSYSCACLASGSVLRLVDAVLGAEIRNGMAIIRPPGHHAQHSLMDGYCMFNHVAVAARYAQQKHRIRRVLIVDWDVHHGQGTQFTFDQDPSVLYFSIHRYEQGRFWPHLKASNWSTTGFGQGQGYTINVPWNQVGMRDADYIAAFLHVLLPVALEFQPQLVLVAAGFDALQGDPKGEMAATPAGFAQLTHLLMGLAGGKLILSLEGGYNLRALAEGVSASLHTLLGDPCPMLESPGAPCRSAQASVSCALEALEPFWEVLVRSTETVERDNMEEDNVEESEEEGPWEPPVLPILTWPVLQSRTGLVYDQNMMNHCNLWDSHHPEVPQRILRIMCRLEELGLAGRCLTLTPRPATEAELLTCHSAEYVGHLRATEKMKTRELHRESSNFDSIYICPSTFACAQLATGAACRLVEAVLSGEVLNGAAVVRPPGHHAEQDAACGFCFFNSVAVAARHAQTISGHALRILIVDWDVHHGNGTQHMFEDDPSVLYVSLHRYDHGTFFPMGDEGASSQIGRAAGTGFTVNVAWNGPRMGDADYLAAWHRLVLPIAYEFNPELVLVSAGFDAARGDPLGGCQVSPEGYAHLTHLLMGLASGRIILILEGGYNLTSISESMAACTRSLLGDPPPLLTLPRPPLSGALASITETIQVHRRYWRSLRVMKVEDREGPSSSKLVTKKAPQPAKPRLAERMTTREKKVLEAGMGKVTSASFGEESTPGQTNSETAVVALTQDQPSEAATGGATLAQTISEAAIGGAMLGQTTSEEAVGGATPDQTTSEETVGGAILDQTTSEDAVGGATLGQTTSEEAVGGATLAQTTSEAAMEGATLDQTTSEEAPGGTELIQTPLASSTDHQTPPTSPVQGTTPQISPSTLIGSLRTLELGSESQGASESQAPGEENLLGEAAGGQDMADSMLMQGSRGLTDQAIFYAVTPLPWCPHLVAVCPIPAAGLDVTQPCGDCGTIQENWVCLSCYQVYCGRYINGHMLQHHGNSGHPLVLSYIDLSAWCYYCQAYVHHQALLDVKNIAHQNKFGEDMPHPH

NCI-H1975 = experiment: Cytotoxicity against human NCI-H1975 cells assessed as cell growth inhibition; type: functional, cell-based
A549 [2] = experiment: Cytotoxicity against human A549 cells assessed as cell growth inhibition; type: functional, cell-based
[3] = target: Epidermal growth factor receptor (Homo sapiens, UniProt P00533); experiment: Inhibition of EGFR (unknown origin)
Epidermal growth factor receptor, sequence (P00533 whole entry): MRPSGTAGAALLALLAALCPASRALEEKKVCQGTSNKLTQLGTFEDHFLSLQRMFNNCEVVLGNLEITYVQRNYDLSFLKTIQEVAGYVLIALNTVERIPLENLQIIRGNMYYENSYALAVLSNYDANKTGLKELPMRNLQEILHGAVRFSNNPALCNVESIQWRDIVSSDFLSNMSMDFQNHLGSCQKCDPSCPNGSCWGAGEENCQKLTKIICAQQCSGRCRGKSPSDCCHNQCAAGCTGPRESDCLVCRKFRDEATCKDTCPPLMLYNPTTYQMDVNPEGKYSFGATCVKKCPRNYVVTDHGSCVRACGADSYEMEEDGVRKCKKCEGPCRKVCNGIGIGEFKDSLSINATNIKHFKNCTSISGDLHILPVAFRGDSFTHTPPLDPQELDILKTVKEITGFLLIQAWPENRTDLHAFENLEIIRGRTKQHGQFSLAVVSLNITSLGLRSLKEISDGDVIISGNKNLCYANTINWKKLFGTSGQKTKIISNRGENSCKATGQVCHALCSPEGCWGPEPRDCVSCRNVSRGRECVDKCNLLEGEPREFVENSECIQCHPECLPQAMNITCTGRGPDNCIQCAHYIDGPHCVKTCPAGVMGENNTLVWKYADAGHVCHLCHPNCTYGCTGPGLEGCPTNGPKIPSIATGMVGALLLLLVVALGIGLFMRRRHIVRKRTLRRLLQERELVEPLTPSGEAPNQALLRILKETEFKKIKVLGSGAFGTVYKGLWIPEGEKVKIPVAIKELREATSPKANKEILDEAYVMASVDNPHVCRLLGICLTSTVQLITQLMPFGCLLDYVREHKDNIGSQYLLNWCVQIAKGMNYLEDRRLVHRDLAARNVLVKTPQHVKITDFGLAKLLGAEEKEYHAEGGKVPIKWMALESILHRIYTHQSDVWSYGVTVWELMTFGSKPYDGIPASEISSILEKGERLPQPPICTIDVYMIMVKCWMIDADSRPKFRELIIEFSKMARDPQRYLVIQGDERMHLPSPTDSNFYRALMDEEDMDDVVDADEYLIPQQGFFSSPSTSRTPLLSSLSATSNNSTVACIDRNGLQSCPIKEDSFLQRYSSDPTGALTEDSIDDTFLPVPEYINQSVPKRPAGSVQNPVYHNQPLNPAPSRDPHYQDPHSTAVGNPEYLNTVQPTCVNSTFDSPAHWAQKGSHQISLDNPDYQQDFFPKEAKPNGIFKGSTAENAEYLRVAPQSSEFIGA

A-431 = experiment: Cytotoxicity against human A-431 cells assessed as cell growth inhibition; type: functional, cell-based
BT-474 = experiment: Cytotoxicity against human BT-474 cells assessed as cell growth inhibition; type: functional, cell-based
SK-BR-3 = experiment: Cytotoxicity against human SK-BR-3 cells assessed as cell growth inhibition; type: functional, cell-based
Histone deacetylase 1 [4] = target: T2, Histone deacetylase 1 (Homo sapiens, UniProt Q13547); experiment: Inhibition of HDAC1 (unknown origin)
T2 sequence (Q13547 whole entry): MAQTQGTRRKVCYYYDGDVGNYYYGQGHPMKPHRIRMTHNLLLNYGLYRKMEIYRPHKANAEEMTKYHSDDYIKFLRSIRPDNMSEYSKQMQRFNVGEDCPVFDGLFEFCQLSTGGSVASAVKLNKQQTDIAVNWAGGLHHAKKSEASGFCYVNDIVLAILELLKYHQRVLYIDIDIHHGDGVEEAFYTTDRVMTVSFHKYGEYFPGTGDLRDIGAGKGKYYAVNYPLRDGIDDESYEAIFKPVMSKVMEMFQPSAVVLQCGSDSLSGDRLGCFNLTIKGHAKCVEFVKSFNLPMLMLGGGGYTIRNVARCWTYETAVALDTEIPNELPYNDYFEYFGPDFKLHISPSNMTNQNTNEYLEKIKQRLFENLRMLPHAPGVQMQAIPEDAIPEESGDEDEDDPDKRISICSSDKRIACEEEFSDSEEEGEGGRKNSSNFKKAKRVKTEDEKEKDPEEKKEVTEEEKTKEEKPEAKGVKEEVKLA

LNCaP = experiment: Antiproliferative activity against human LNCaP cells expressing androgen receptor assessed as inhibition of cell viability; type: functional, cell-based
Androgen receptor = Androgen receptor (Rattus norvegicus, UniProt P15207); experiment: Displacement of [3H]-mibolerone from rat androgen receptor incubated for 4 hrs by radioligand binding assay
Androgen receptor, sequence (P15207 whole entry S389L): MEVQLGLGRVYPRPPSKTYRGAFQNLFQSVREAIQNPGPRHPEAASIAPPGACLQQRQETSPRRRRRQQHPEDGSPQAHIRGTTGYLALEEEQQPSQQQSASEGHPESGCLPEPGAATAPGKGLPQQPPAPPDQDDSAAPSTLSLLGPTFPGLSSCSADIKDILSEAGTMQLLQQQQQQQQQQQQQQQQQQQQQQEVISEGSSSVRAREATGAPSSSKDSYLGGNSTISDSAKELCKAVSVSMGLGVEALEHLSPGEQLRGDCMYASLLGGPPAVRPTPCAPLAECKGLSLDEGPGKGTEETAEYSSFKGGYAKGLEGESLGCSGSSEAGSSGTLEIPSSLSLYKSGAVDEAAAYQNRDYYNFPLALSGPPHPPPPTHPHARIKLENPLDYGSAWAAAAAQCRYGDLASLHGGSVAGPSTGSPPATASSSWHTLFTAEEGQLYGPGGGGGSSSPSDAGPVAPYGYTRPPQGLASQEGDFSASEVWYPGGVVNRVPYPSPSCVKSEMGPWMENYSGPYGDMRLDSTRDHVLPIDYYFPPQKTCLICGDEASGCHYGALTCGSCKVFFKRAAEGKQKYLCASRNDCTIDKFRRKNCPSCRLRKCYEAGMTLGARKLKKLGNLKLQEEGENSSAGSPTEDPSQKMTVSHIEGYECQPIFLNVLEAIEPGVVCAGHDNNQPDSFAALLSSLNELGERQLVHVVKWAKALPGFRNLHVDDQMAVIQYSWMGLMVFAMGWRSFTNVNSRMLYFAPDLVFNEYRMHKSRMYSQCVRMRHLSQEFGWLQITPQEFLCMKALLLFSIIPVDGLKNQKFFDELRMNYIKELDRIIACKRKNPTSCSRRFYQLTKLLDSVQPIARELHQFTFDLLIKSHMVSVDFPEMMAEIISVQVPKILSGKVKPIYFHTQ

DU-145 = experiment: Antiproliferative activity against human DU-145 assessed as inhibition of cell viability incubated for 72 hrs by MTT/MTS assay; type: functional, cell-based; settings: DU-145, 72 h
Vitamin D3 receptor = Vitamin D3 receptor (Homo sapiens, UniProt P11473); experiment: Displacement of fluorescent tracer from VDR (unknown origin) by fluorescence polarisation competition assay
Vitamin D3 receptor, sequence (P11473 whole entry): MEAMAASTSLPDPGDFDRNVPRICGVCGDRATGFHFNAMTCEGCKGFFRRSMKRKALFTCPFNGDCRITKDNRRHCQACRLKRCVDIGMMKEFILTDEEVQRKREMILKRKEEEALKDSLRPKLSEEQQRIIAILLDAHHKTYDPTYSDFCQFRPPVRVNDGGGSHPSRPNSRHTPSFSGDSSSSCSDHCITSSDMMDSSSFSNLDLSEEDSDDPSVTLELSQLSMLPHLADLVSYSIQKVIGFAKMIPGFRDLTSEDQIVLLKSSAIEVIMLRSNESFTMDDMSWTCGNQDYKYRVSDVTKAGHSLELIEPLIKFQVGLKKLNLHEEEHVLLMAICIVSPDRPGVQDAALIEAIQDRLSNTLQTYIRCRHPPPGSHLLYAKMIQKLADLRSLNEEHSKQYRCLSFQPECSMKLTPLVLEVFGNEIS

Histone deacetylase 1 [5] = target: T2, Histone deacetylase 1; experiment: Inhibition of recombinant human HDAC1 using Boc-Lys (Ac)-AMC as substrate incubated for 60 mins by fluorescence based assay
SMMC-7721 = experiment: cells; type: functional, cell-based; settings: Homo sapiens, SMMC-7721, 48 h
Jurkat = experiment: Cytotoxicity against human Jurkat cells assessed as cell growth inhibition by trypan blue dye based light microscopy; type: functional
MCF7 [6] = experiment: Cytotoxicity against human MCF7 cells assessed as cell growth inhibition by trypan blue dye based light microscopy; type: functional
Histone deacetylase 1 [7] = target: T2, Histone deacetylase 1; experiment: Inhibition of recombinant human HDAC1 using fluorogenic substrate measured after 60 mins by fluorescence based assay
A549 [8] = experiment: Antitumor activity against human A549 cells xenografted in BALB/c mouse assessed as tumor growth inhibition measured every 2 days for 2 to 3 weeks by caliper method relative to control; type: functional; settings: time 2 day
A549 [9] = experiment: Antiproliferative activity against human A549 cells assessed as inhibition of cell viability treated for 12 to 48 hrs by MTT assay; type: functional, cell-based
[10] = target: T1, Protein deacetylase HDAC6; experiment: Inhibition of recombinant human HDAC6 using HDAC substrate incubated for 30 mins by fluorescence based microplate reader analysis
Histone deacetylase 1 [11] = target: T2, Histone deacetylase 1; experiment: Inhibition of recombinant human HDAC1 using HDAC substrate incubated for 30 mins by fluorescence based microplate reader analysis
HepG2 = experiment: Antiproliferative activity against human HepG2 cells assessed as cell growth inhibition incubated for 72 hrs by CCK-8 assay; type: functional, cell-based; settings: HepG2, 72 h
Histone deacetylase 2 = Histone deacetylase 2 (Homo sapiens, UniProt Q92769); experiment: Inhibition of recombinant human HDAC2 using HDAC substrate incubated for 30 mins by fluorescence based microplate reader analysis
Histone deacetylase 2, sequence (Q92769 whole entry): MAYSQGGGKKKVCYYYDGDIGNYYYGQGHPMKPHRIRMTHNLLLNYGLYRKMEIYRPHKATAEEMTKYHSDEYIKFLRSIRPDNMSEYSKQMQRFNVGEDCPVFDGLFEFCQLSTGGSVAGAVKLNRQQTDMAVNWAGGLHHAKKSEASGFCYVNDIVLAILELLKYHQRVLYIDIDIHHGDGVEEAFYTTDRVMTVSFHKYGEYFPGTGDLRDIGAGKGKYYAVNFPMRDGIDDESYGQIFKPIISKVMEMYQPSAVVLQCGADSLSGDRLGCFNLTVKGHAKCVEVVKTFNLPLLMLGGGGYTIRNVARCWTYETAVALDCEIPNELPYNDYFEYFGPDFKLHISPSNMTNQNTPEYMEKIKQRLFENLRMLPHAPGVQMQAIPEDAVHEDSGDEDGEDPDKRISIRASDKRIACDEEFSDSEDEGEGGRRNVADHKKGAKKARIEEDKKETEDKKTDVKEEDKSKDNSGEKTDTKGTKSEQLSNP

PC-3 = experiment: Antiproliferative activity against human PC-3 cells assessed as cell growth inhibition incubated for 72 hrs by CCK-8 assay; type: functional, cell-based; settings: PC-3, 72 h
A549 [12] = experiment: Antiproliferative activity against human A549 cells assessed as cell growth inhibition incubated for 72 hrs by CCK-8 assay; type: functional, cell-based; settings: A549, 72 h
MCF7 [13] = experiment: Antiproliferative activity against human MCF7 cells assessed as cell growth inhibition incubated for 72 hrs by CCK-8 assay; type: functional, cell-based; settings: MCF7, 72 h
HeLa = experiment: Antiproliferative activity against human HeLa cells assessed as cell growth inhibition incubated for 72 hrs by CCK-8 assay; type: functional, cell-based
[14] = Antiproliferative activity against human WM983B cells assessed as cell growth inhibition; type: functional, cell-based
SK-MEL-5 = experiment: Antitumor activity against human SK-MEL-5 cells xenografted in BALB/c mouse assessed as reduction in tumor volume at 30 mg/kg, ip qd measured after 4 weeks by caliper method relative to control; type: functional; parameters: scale not given: the % may be the effect or the level left
Histone deacetylase 1 [15] = target: T2, Histone deacetylase 1; experiment: Inhibition of HDAC1 (unknown origin) using RHKK(Ac) as substrate incubated for 30 mins by fluorescence based assay
[16] = target: Lysine-specific histone demethylase 1A (Homo sapiens, UniProt O60341); experiment: Inhibition of LSD1 (unknown origin) using diMeK4H31-21 as substrate preincubated for 5 mins followed by substrate addition measured for 5 mins by absorbance based assay
Histone deacetylase 1 [17] = target: T2, Histone deacetylase 1; experiment: Inhibition of recombinant human HDAC1 using Boc-L-Lys (Ac)-AMC as substrate incubated for 35 mins by microplate reader analysis
[18] = target: T1, Protein deacetylase HDAC6; experiment: Inhibition of recombinant human HDAC6 expressed in baculovirus infected Hi-5 insect cells using Boc-Lys (epsilon-acetyl)-AMC as substrate incubated for 3 to 24 hrs by fluorescence based assay
Histone deacetylase 1 [19] = target: T2, Histone deacetylase 1; experiment: Inhibition of HDAC1 (unknown origin) using Boc-Lys(Ac)-7-amino-4-methylcoumarin (BocLys(Ac)-AMC) as substrate incubated for 30 mins by fluorescence based assay
[20] = target: T1, Protein deacetylase HDAC6; experiment: Inhibition of HDAC6 (unknown origin) using Boc-Lys(Ac)-7-amino-4-methylcoumarin (BocLys(Ac)-AMC) as substrate incubated for 30 mins by fluorescence based assay

IC50 [1]: 4.3 nM | IC50 [3]: 10.3 nM | IC50 (Histone deacetylase 1 [4]): 1.1 nM
Structure (SMILES): O=C(CCCCCCN1CC(c2ccc3ncnc(Nc4ccc(Br)cc4F)c3c2)N=N1)NO (stereo unspecified)
IC50 (NCI-H1975): 7850 nM | IC50 (A549 [2]): 710 nM | IC50 (A-431): 260 nM | IC50 (BT-474): 5130 nM | IC50 (SK-BR-3): 10900 nM

IC50 (Vitamin D3 receptor): 87 nM
Structure (SMILES): C=C1/C(=C\C=C2/CCC[C@@]3(C)[C@@H]2CC[C@H]3[C@@H](C)/C=C(C)/C=C/C(=O)NO)C[C@H](O)C[C@@H]1O

IC50 (Histone deacetylase 1 [7]): 2200 nM
Structure (SMILES): O=C(CCn1cc(CCn2nc3c(Br)c(Br)c(Br)c(Br)c3n2)nn1)NO
IC50 (Jurkat): 2870 nM | IC50 (MCF7 [6]): 4260 nM

IC50 (A549 [9]): 4900 nM
Structure (SMILES): C=C(c1ccc(C(=O)NO)cc1)c1cc2c(cc1C)C(C)(C)CCC2(C)C
TGI (A549 [8]): 53%

IC50 [18]: 2770 nM
Structure (SMILES): COCCOc1cc2ncnc(Nc3ccc(/C=C/C(=O)NO)cc3)c2cc1OCCOC

IC50 (Histone deacetylase 1 [19]): 14300 nM | IC50 [20]: 580000 nM
Structure (SMILES): CCC(CC)(c1ccc(OCC(=O)NO)c(C)c1)c1ccc(OCC(O)C(C)(C)C)c(C)c1 (stereo unspecified)

Second part, the compound before the results:

Structure (SMILES): CC1(C)C(=O)N(c2ccc(C#N)c(C(F)(F)F)c2)C(=O)N1Cc1ccc(-c2cn(CCCCCCC(=O)NO)nn2)cc1
IC50 (LNCaP): 1100 nM | IC50 (Androgen receptor): 690 nM | IC50 (DU-145): 1000 nM

Structure (SMILES): CC(C)=CCC/C(C)=C/CC/C(C)=C/CSc1ccccc1C(=O)NCCCCC(=O)NO
IC50 (Histone deacetylase 1 [5]): 58 nM | IC50 (SMMC-7721): 4930 nM

Structure (SMILES): C[C@H]1COc2c(N3CCN(C)CC3)c(F)cc3c(=O)c(C(=O)NCC4CN(CC(=O)NO)N=N4)cn1c23 (stereo partly specified)
IC50 [10]: 21 nM | IC50 (Histone deacetylase 1 [11]): 29 nM | IC50 (HepG2): 2300 nM | IC50 (Histone deacetylase 2): 41 nM | IC50 (PC-3): 4900 nM | IC50 (A549 [12]): 2100 nM | IC50 (MCF7 [13]): 300 nM | IC50 (HeLa): 1100 nM

Structure (SMILES): Nc1ccccc1NC(=O)c1ccc(CCCC(=O)Nc2ccc(C3CC3N)cc2)cc1 (stereo unspecified)
IC50 [14]: 200 nM | Activity (SK-MEL-5): <=61% | IC50 (Histone deacetylase 1 [15]): 140 nM | IC50 [16]: 100 nM

Structure (SMILES): O=C(CCCCc1cn(-c2ccc(C(=O)c3c(-c4ccc(O)cc4)sc4cc(O)ccc34)cc2)nn1)NO
IC50 [1]: 1300 nM | IC50 (Histone deacetylase 1 [17]): 1820 nM
